Reference: ChEMBL document CHEMBL1201862, “PubChem BioAssay data set” (2004)
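Dose response: 5 concentrations. Exposure: 48 h. Format: 96-well plates. Endpoint: linear interpolation; highest concentration if not reached. GI50 marks 50% less growth.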 Active and inactive are the calls of the source. Rule as the data show it: active = GI50 up to about 1.1 µM and inactive = higher.

Legend:
Assay in all cases: NCI anticancer screen, dose series, 48 h
EKVX = test system: EKVX
A498 = test system: A498
786-0 = test system: 786-0
MOLT-4 = test system: MOLT-4
UACC-62 = test system: UACC-62
DU-145 = test system: DU-145
RPMI-8226 = test system: RPMI-8226
NCI-H226 = test system: NCI-H226
SNB-19 = test system: SNB-19
HCC 2998 = test system: HCC 2998
SF-295 = test system: SF-295
OVCAR-8 = test system: OVCAR-8
OVCAR-4 = test system: OVCAR-4
COLO 205 = test system: COLO 205
RXF 393 = test system: RXF 393
OVCAR-3 = test system: OVCAR-3
Hs-578T = test system: Hs-578T
TK-10 = test system: TK-10
SK-MEL-5 = test system: SK-MEL-5
MDA-MB-231 = test system: MDA-MB-231

Measured: GI50

CC(C)N/C(=N\C#N)NS(=O)(=O)c1cnccc1Nc1ccc(Cl)cc1
inactive: EKVX > 100 µM | A498 > 100 µM | 786-0 > 100 µM | MOLT-4 > 100 µM | UACC-62 > 100 µM | DU-145 > 100 µM | RPMI-8226 > 100 µM | NCI-H226 > 100 µM | SNB-19 > 100 µM | HCC 2998 > 100 µM | SF-295 > 100 µM | OVCAR-8 > 100 µM | OVCAR-4 > 100 µM | COLO 205 > 100 µM | RXF 393 > 100 µM | OVCAR-3 > 100 µM | Hs-578T > 100 µM | TK-10 > 100 µM | SK-MEL-5 > 100 µM | MDA-MB-231 > 100 µM

O=C1C(Br)=C(Br)C(=O)c2ccc(=O)ccc21
inactive: EKVX 36.6 µM | A498 > 100 µM | 786-0 18.3 µM | MOLT-4 3.36 µM | UACC-62 19.5 µM | DU-145 > 100 µM | RPMI-8226 20 µM | NCI-H226 > 53 µM | SNB-19 > 100 µM | HCC 2998 > 85.1 µM | SF-295 33.2 µM | OVCAR-8 22.3 µM | OVCAR-4 17.5 µM | COLO 205 13.3 µM | RXF 393 19.2 µM | OVCAR-3 20.8 µM | Hs-578T 26.4 µM | TK-10 18.7 µM | SK-MEL-5 21 µM | MDA-MB-231 19.9 µM

O=C(/C=C/c1ccc(OCCSCCCCCCCCCCSCCOc2ccc(/C=C/C(=O)c3ccc(Cl)cc3)cc2)cc1)c1ccc(Cl)cc1
inactive: EKVX > 100 µM | A498 > 100 µM | 786-0 75.3 µM | MOLT-4 > 100 µM | UACC-62 > 80.9 µM | DU-145 > 100 µM | RPMI-8226 > 100 µM | NCI-H226 > 76.2 µM | SNB-19 > 74.3 µM | HCC 2998 > 100 µM | SF-295 65.8 µM | OVCAR-8 > 100 µM | OVCAR-4 > 100 µM | COLO 205 > 100 µM | RXF 393 43.6 µM | OVCAR-3 > 100 µM | Hs-578T > 78.5 µM | TK-10 > 100 µM | SK-MEL-5 > 100 µM | MDA-MB-231 > 100 µM

CN(C)/C=C/c1ccnc2c1C(=O)c1ccccc1C2=O
inactive: EKVX 18.3 µM | A498 31.9 µM | 786-0 17.2 µM | MOLT-4 22.5 µM | UACC-62 1.38 µM | DU-145 1.73 µM | RPMI-8226 3.48 µM | NCI-H226 10.5 µM | SNB-19 5.89 µM | HCC 2998 7.64 µM | SF-295 4.56 µM | OVCAR-8 15.5 µM | OVCAR-4 23.4 µM | COLO 205 24.9 µM | RXF 393 > 59.3 µM | OVCAR-3 3.74 µM | Hs-578T 2.78 µM | TK-10 > 92.7 µM | SK-MEL-5 1.28 µM | MDA-MB-231 30.6 µM

CC(C)(C)OC(=O)N1CCC2(CC1)C(=O)NCN2c1ccccc1
inactive: EKVX > 100 µM | A498 > 100 µM | 786-0 > 100 µM | MOLT-4 > 100 µM | UACC-62 > 100 µM | DU-145 > 100 µM | RPMI-8226 > 100 µM | NCI-H226 > 100 µM | SNB-19 > 100 µM | HCC 2998 > 100 µM | SF-295 > 100 µM | OVCAR-8 > 100 µM | OVCAR-4 > 100 µM | COLO 205 > 100 µM | RXF 393 > 100 µM | OVCAR-3 > 100 µM | Hs-578T > 100 µM | TK-10 > 100 µM | SK-MEL-5 > 100 µM | MDA-MB-231 > 100 µM
